Experimental findings from BindingDB's records for doi:10.1016/j.ejmech.2011.07.022 (Medical University of Warsaw, 2011) are described below.

In the assay the target is T1, 5-hydroxytryptamine receptor 1A (Rattus norvegicus, UniProt P19327).
T1 sequence (P19327 whole entry): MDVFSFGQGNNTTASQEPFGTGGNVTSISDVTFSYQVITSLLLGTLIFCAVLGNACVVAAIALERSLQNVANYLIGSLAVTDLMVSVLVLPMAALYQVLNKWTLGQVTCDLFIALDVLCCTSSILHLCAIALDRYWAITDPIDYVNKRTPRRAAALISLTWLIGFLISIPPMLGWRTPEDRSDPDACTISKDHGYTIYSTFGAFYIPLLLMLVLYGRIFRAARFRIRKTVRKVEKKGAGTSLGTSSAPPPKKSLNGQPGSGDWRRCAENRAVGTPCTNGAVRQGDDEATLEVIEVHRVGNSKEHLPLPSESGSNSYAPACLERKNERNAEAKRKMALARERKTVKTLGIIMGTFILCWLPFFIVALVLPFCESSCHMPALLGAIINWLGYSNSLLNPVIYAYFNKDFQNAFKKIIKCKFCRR
The assay can be described thus: Displacement of [3H]8OH-DPAT from 5HT1A in rat brain cerebral cortex after 15 mins by scintillation counting. In general terms: Displacement assays read how much labelled ligand stays bound in the presence of the test substance.

Usually Ki stands for the equilibrium dissociation constant of an inhibitor or competing ligand from its target. Low readings indicate higher affinity, high ones lower affinity. `COc1ccc(Cl)cc1C(=O)NC1C[C@H]2CC[C@H](C1)N2Cc1ccco1` (stereo partly specified) displayed a Ki above 100 µM.
